Results taken from a melting point compilation (Tetko et al.; mined from patent text by program, amines drawn as free bases though some values may be those of a salt).

Row | melting point [°C] | SMILES
1 | 128 to 130 | CN(C)S(=O)(=O)c1ccc(Oc2ccc(S(C)(=O)=O)cc2)cc1
2 | > 250 | COc1cc([N+](=O)[O-])ccc1S(=O)(=O)n1c(=O)n(-c2ccccc2)c2cc(Cl)ccc21
3 | 225 to 227 | Cc1cc(Nc2ccc(Cl)cc2)nc(-n2cc3ccccc3n2)n1
4 | > 270 | Nc1cc2c(cc1Cl)N1CCCN=C1C2=O
5 | 187 to 188 | CC1Cc2cc3c(cc2C(c2ccc([N+](=O)[O-])cc2)=NN1C(=S)Cl)OCO3 (stereo not drawn)
6 | 135 to 136 | COc1ccc(CCNc2ncnc3occc23)cc1
7 | 70 to 71 | Brc1ccc(OCCC(c2ccccc2)c2ccccc2)cc1
8 | 219 to 224 | CCNC(=O)c1ccc(N2CCN(Cc3cc4c(c(OC(F)F)c3)OC(C)C(=O)N4)CC2)cc1 (stereo not drawn)
9 | 163 to 165 | O=C(O)c1cc2cc(OCc3ccccc3)ccc2cc1OCc1ccccc1
10 | 275 to 277 | O=C1NC(=S)SC1=Cc1cc(Cl)c2c(c1)N(CCc1ccc(C(F)(F)F)cc1)C(=O)CO2
11 | 267 to 268 | O=C(Nc1cc([N+](=O)[O-])c[nH]c1=O)c1ccccc1
12 | 137 to 138 | CCOC(=O)/C=C/C=C/c1ccc(OCc2nc(-c3ccccc3)oc2C)cc1
13 | 121 to 126 | O=C(NC(CO)Cc1ccc(O)cc1)OCC1CCCCC1 (stereo not drawn)
14 | 188 to 190 | O=C(Nc1ccc(OCCN2CCOCC2)c2ccccc12)c1ccc2snnc2c1
15 | 155 | Cc1cccc(C)c1NC(=O)c1cc(C)n(C)n1
16 | 135 to 137 | O=C1CCC(N2C(=O)c3cccc(OCc4ccc(CN5CCN(c6ccc(F)cc6)CC5)cc4)c3C2=O)C(=O)N1 (stereo not drawn)

Row | melting point [°C] | SMILES
17 | 117 to 120 | CCc1nc2c(cnn2CC)c(NC2CCOCC2)c1CNC(=O)c1cccc(C(=O)NCc2ccc(Cl)c(-c3cccc(CN4CCNC(C)C4)c3)c2)c1 (stereo not drawn)
18 | 212 to 213 | CN1CCC(c2c(O)cc(O)c3c(=O)cc(-c4ccccc4O)oc23)C1CO (stereo not drawn)
19 | 130 | CCN(CC)C(=O)CCc1nc(-c2ccccn2)nc2ccccc12
20 | 151 to 152 | OC(C1=NCCN1)(c1ccccn1)c1cccs1 (stereo not drawn)
21 | 105 to 106 | COc1ccc(C(=O)CNc2ccccc2)cc1
22 | 186 to 187 | COc1ccc(-c2ccc(-n3nnnc3C(F)(F)F)cc2)cc1C=O
23 | 254 to 256 | CC(=O)NNc1nc(C(F)(F)F)nc(-c2ccc(S(C)(=O)=O)cc2)c1-c1ccc(Cl)cc1
24 | 150 | CCOC(=O)c1cncc(O)c1
25 | 177 to 178 | COc1cc(Cc2cnc(NCCSCc3nc[nH]c3C)[nH]c2=O)ccn1
26 | 133 to 135 | COc1ccc2[nH]c3c(c2c1)C(=O)/C(=C/c1nc[nH]c1C)CC3
27 | 201 to 203 | COCc1c(C(=O)OC(C)C)ncc2[nH]c3cccc(Oc4ccccc4)c3c12
28 | 127 to 128 | O=C(N1CCN(c2ncccn2)CC1)N1CC(Oc2cccc(C(F)(F)F)c2)C1
29 | 60 | Nc1ccc(N2CCN(CC(O)(Cn3cncn3)c3ccc(Cl)cc3Cl)CC2)cc1 (stereo not drawn)
30 | 135 to 136 | COC(=O)C(=O)c1ccc(OCCOc2ccnc3ccccc23)cc1
31 | 217 to 219 | O=P(O)(O)Cc1ccc(S(=O)(=O)c2ccccc2)cc1

Continued, compound first:

Row | SMILES | melting point [°C]
32 | O=C(CCc1ccncc1)NC(Cc1c[nH]c2ccccc12)C(=O)CCc1cc(C(F)(F)F)cc(C(F)(F)F)c1 (stereo not drawn) | 108
33 | CCC12CCC(=O)C3Oc4c(O)ccc5c4C31CCN(CC1CC1)C2C5 (stereo not drawn) | 157 to 158
34 | CCn1ccc(OC2c3cc(C#N)ccc3OC(C)(C)C2(C)O)cc1=O (stereo not drawn) | 166 to 168
35 | CCOC(=O)c1cc(-c2nnnn2C)c(-c2ccc(F)cc2)s1 | 132 to 133
36 | COc1cc(-n2c(OC)nc(C(F)(F)C(F)(F)F)cc2=O)c(F)cc1Cl | 123 to 125
37 | CNC(=O)NC1OCC(OC(C)=O)C(OC(C)=O)C1OC(C)=O (stereo not drawn) | 170 to 172
38 | COc1ccnc(C(C)Sc2nc3cc4c(cc3[nH]2)OC(F)(F)O4)c1 (stereo not drawn) | 173 to 175
39 | Cc1ccccc1-c1cc(F)c2c(c1)CC(CN)O2 (stereo not drawn) | > 250
40 | CC(C)OC(=O)N[C@@H](C(=O)O)c1ccccc1 | 123 to 127
41 | O=[N+]([O-])c1ccc(C#CBr)cc1 | 170
42 | COc1ccc2c(c1)c(=O)n1nc(C(N)=O)cc1n2C | > 300
43 | CCN1CCCC1CNC(=O)c1cc(S(C)(=O)=O)c(N)cc1OC (stereo not drawn) | 151 to 152
44 | CN(C)CC1CCn2c(c(C3=C(c4csc5ccccc45)C(=O)NC3=O)c3ccccc32)C1 (stereo not drawn) | 285 to 286
45 | Fc1c(F)c(-c2c(F)c(F)c(Oc3cccc4ccccc34)c(F)c2F)c(F)c(F)c1Oc1cccc2ccccc12 | 189 to 191
46 | CN1C(=O)C2CN(Cc3ccncc3)CCN2c2ccccc21 (stereo not drawn) | 252 to 254
47 | CC(c1ccc2[nH]nc(S(=O)(=O)c3cccc4ccccc34)c2c1)N1CCN(C)CC1 (stereo not drawn) | 183 to 185
48 | CCOC(=O)C1=C(N)C(OCC)=NS1=O (stereo not drawn) | 154 to 155
49 | N#Cc1ccc(N2CCOCC2)c(NC(N)=S)c1 | 193 to 194
50 | CN1CCc2cc(S(=O)(=O)NC(=O)Nc3ccc(Cl)cc3)ccc21 | 145 to 147
51 | CCNc1nc(C)c(-c2ccnc(Nc3ccc(N4CCOCC4)c(OC)c3)n2)s1 | 224 to 226
52 | CSc1ccc(-c2cnc3ccc(-c4nnc(C)o4)cn23)cc1 | 180 to 181
53 | CC(C)Oc1ccccc1C(=O)NC(=O)NC1CN2CCC1CC2 (stereo not drawn) | 171 to 175
54 | CC(=O)Oc1cc2c(c3ccccc13)N(C(=O)OC(C)OC(C)=O)c1ccccc1S2 (stereo not drawn) | 76 to 78

Row | SMILES | melting point [°C]
55 | COc1ccc(-c2nnc(Nc3ccc4cccnc4c3)cc2-c2ccc(C(F)(F)F)cc2)cc1 | 215 to 217
56 | CCOC(=O)n1c(SC(F)(F)C(F)F)nc(-c2ccc(F)cc2)c1-c1ccc(F)cc1 | 137 to 139
57 | CN1CC(=O)Nc2cccc(Cl)c2C1=O | 230 to 232
58 | CN(C)CCNC(=O)c1ccc(-c2nnc(CSCCOc3ccccc3)o2)cc1 | 94 to 100
59 | N=C(NO)c1cc(Oc2ccc(Cl)cc2Cl)c(O)cc1Cl | 137
60 | N#Cc1sc2cc(NC(=O)OCc3ccccc3)ccc2c1Cl | 155 to 166
61 | CCc1noc(-c2ncn(-c3cccnc3)c2C)n1 | 127 to 128
62 | COC1=C(OC)C(=O)C2=C(CCC(CCOc3ccc(F)cc3)CC2)C1=O | 91 to 93
63 | COCOCC1(C)Cc2c(C)c(N3CCN(c4ccc(OC)cc4)CC3)c(C)c(C)c2O1 (stereo not drawn) | 111 to 114
64 | NC(=O)N1CCC(c2nn(-c3ccccc3)c3cc(F)ccc23)CC1 | 149 to 151
65 | CC(=O)CNC(=O)c1ccccc1C | 65 to 66
66 | CCCCCCc1cc2c(cc1C(=O)O)CCCCC2(C)C | 74 to 75
67 | COC(=O)C1CCCn2c(C(=O)c3ccc(F)cc3)ccc21 (stereo not drawn) | 78 to 79
68 | O=[N+]([O-])c1cccc2c1OC(CO)C2 (stereo not drawn) | 63 to 65
69 | COc1ccc(CC(=O)O)c(OCCc2ccccc2)c1 | 107 to 108
70 | CCOCCS(=O)(=O)C(F)(F)C(O)(Cn1cncn1)c1ccc(F)cc1F (stereo not drawn) | 89 to 91
71 | CCCCOCCOc1ccc(-c2cnc(N3CCC(C)C3)c(/C=C(\C)C(=O)O)c2)cc1 (stereo not drawn) | 106 to 108
72 | O=C(Nc1cc(Cl)ccc1-c1nnn[nH]1)c1cnn(-c2ccc(Cl)cc2)c1C(F)(F)F | 176 to 180
73 | CN(CC=C(F)C(F)(F)C(F)(F)C(F)(F)F)CCCCCC1Cc2cc(O)ccc2C2C(F)CC3(C)C(O)CCC3C12 (stereo not drawn) | 130
74 | Nc1nc2ccccc2c2c1nc(CN1CCOCC1)n2Cc1ccccc1 | > 300
75 | C/C=C/C=C(\C[C@H](N)C(=O)O)C(=O)O | 190
76 | CN(CCOc1ccc(CCOCCc2ncno2)cc1)c1nc2ccccc2o1 | 89 to 90
77 | CC1Cc2c(c(Cl)cc(F)c2N2C(=O)c3ccccc3C2=O)O1 (stereo not drawn) | 158 to 160

Row | SMILES | melting point [°C]
78 | CCCCCCCCCCCCCCCCCCS(=O)c1cc2ccccc2c(N=Nc2ccc(OC)cc2)c1O (stereo not drawn) | 108 to 110
79 | CCOC(=O)C(OCC)(OCC)C(=O)c1cccc2snnc12 | 123 to 125
80 | CCN(CC)C(=O)c1ccc2ccccc2c1-c1ccc(C(F)(F)F)cc1 | 111 to 112
81 | COC(=O)N[C@H](C(=O)N[C@@H](Cc1ccccc1)[C@@H](O)CN(Cc1ccc(-c2nccs2)cc1)NC(=O)OC(C)(C)C)C(C)C | 178 to 179
82 | COc1ccc(S(=O)(=O)N(CCC(C)C)CC(O)C(Cc2ccccc2)NC(=O)C(C)CS(C)(=O)=O)cc1 (stereo not drawn) | 125 to 129
83 | CCOC(=O)C1=C(C#N)NC(C)=C(C(=O)OCCN(CC)CC)C1c1cccc([N+](=O)[O-])c1 (stereo not drawn) | 150 to 152
84 | Cc1[nH]c(C(=O)NCCc2ccccn2)c(C)c1-c1nc2ccc(Oc3ccccc3)cc2[nH]1 | 290 to 293
85 | CCOC(=O)c1cc2c(C)c(C)cc(NS(=O)(=O)c3cccs3)c2[nH]1 | 161 to 162
86 | CCN(CC)CCNC(=O)c1nc(Cl)c(OC)nc1OC | 88
87 | CC(=O)Nc1nc(/C=C\c2ccc([N+](=O)[O-])cc2)cs1 | 155 to 157
88 | CNC(=O)Oc1cc(C)c(NS(C)(=O)=O)c(C)c1 | 178 to 185
89 | Cc1nc(-n2ccc(OCc3ccc(F)cc3)cc2=O)sc1C(=O)NCc1cccnc1 | 231 to 233
90 | CN(C)CCNNc1ccc(CO)c2oc3ccc(O)cc3c(=O)c12 | 122 to 123
91 | C=CC[C@@H]1C[C@@H](COc2ccc(-c3ccc(C#N)cc3)cc2)N(Cc2ccc(OC)cc2)C1=O | 120 to 122
92 | N#CCCNC(=O)c1cccc(-c2ccc3c(c2)N(c2ccc(Cl)cc2Cl)CCCC3)c1 | 139 to 142
93 | CN1C(=O)[C@H](NC(=O)Nc2ccc(Cl)cc2Cl)N=C(c2ccccc2)c2ccccc21 | 215 to 216
94 | CC(=O)SCC(C)C(=O)N(CC(=O)O)C1CCCCC1 (stereo not drawn) | 142 to 144
95 | O=C(O)C1COC(C(F)(F)F)(C(F)(F)F)O1 (stereo not drawn) | 62 to 63
96 | CCCCOC(=O)c1c(-c2cnccn2)ssc1=S | 127
97 | COc1ccc(C(C)=O)c2c1CCN2C(C)=O | 88 to 89
98 | CCCCCCCOc1ccc(N=Nc2ccc([N+](=O)[O-])cc2)cc1 | 82.3 to 83.2
